Several values for one entry are separate records, joined by “and”; a condition that tells them apart may be missing. Identical values can stand only once.
Tests used:
[1] = test system: ABSSSI known or suspected to be due to Gram-positive pathogens; assay: Phase 3 oral omadacycline vs oral linezolid in ABSSSI: Early Clinical Response 48-72 hours after first dose; format: in vivo, human; conditions: for Early Clinical Success, %: micro-mITT, % of N1; for Difference (95% CI) in Early Clinical Success rate: omadacycline minus linezolid
[2] = Phase 1 multiple oral dose study: safety and tolerability (TEAEs, serum chemistry)
[3] = 48-72 hours after first dose, mITT population
[4] = Cellulitis/erysipelas, actual type, 48-72 hours, mITT
[5] = Cellulitis/erysipelas, as randomized, 48-72 hours, mITT
[6] = Major Abscess, actual type, 48-72 hours, mITT
[7] = Major Abscess, as randomized, 48-72 hours, mITT
[8] = Wound Infection, actual type, 48-72 hours, mITT
[9] = Wound Infection, as randomized, 48-72 hours, mITT
[10] = 600 mg (n = 24), listed as omadacycline
[11] = 300, 450, 600 mg once daily x 5 days

SMILES: CN(C)c1cc(CNCC(C)(C)C)c(O)c2c1C[C@H]1C[C@H]3[C@H](N(C)C)C(O)=C(C(N)=O)C(=O)[C@@]3(O)C(O)=C1C2=O [Omadacycline, 9-[(2,2-dimethyl-propylamino)-methyl]-minocycline]
- Difference (95% CI) in Early Clinical Success rate, omadacycline minus linezolid [1, 3]: 5.0% and 5.0 (−0.2, 10.3) %
- Early Clinical Response: Clinical Failure [1, 3]: 26 (7.2) n (%)
- Early Clinical Response: Clinical Failure or Indeterminate [1, 3]: 45 (12.5) n (%)
- Early Clinical Response: Indeterminate [1, 3]: 19 (5.3) n (%)
- Early Clinical Response: Clinical Success ([1]; 48-72 hours after first dose, mITT population (N = 360 per arm)): 315 (87.5) n (%)
- Early Clinical Response: Clinical Success ([1]; Cellulitis/erysipelas, actual type of infection, 48-72 hours, mITT): 68 (79.1) n (%)
- Early Clinical Response: Clinical Failure [1, 4]: 8 (9.3) n (%)
- Early Clinical Response: Clinical Failure or Indeterminate [1, 4]: 18 (20.9) n (%)
- Early Clinical Response: Indeterminate [1, 4]: 10 (11.6) n (%)
- Early Clinical Response: Clinical Failure [1, 5]: 8 (9.8) n (%)
- Early Clinical Response: Clinical Failure or Indeterminate [1, 5]: 17 (20.7) n (%)
- Early Clinical Response: Indeterminate [1, 5]: 9 (11.0) n (%)
- Early Clinical Response: Clinical Success ([1]; Cellulitis/erysipelas, type of infection as randomized, 48-72 hours, mITT): 65 (79.3) n (%)
- Early Clinical Response: Clinical Success ([1]; Major Abscess, actual type of infection, 48-72 hours, mITT): 60 (93.8) n (%)
- Early Clinical Response: Clinical Failure [1, 6]: 1 (1.6) n (%)
- Early Clinical Response: Clinical Failure or Indeterminate [1, 6]: 4 (6.3) n (%)
- Early Clinical Response: Indeterminate [1, 6]: 3 (4.7) n (%)
- Early Clinical Response: Clinical Failure [1, 7]: 1 (1.6) n (%)
- Early Clinical Response: Clinical Failure or Indeterminate [1, 7]: 4 (6.3) n (%)
- Early Clinical Response: Indeterminate [1, 7]: 3 (4.7) n (%)
- Early Clinical Response: Clinical Success ([1]; Major Abscess, type of infection as randomized, 48-72 hours, mITT): 60 (93.8) n (%)
- Early Clinical Response: Clinical Success ([1]; Wound Infection, actual type of infection, 48-72 hours, mITT): 187 (89.0) n (%)
- Early Clinical Response: Clinical Failure [1, 8]: 17 (8.1) n (%)
- Early Clinical Response: Clinical Failure or Indeterminate [1, 8]: 23 (11.0) n (%)
- Early Clinical Response: Indeterminate [1, 8]: 6 (2.9) n (%)
- Early Clinical Response: Clinical Failure [1, 9]: 17 (7.9) n (%)
- Early Clinical Response: Clinical Failure or Indeterminate [1, 9]: 24 (11.2) n (%)
- Early Clinical Response: Indeterminate [1, 9]: 7 (3.3) n (%)
- Early Clinical Response: Clinical Success ([1]; Wound Infection, type of infection as randomized, 48-72 hours, mITT): 190 (88.8) n (%)
- Early Clinical Success, % ([1]; baseline pathogen Clostridium perfringens, 48-72 hours after first dose): (100.0) %
- Early Clinical Success, % ([1]; baseline pathogen Enterobacter cloacae, 48-72 hours after first dose): (100.0) %
- Early Clinical Success, % ([1]; baseline pathogen Enterococcus faecalis VSE, 48-72 hours after first dose): (85.7) %
- Early Clinical Success, % ([1]; baseline pathogen Enterococcus faecalis, 48-72 hours after first dose): (87.5) %
- Early Clinical Success, % ([1]; baseline pathogen Enterococcus faecium VSE, 48-72 hours after first dose): (100.0) %
- Early Clinical Success, % ([1]; baseline pathogen Enterococcus faecium, 48-72 hours after first dose): (100.0) %
- Early Clinical Success, % ([1]; baseline pathogen Escherichia coli, 48-72 hours after first dose): (100.0) %
- Early Clinical Success, % ([1]; baseline pathogen Finegoldia magna, 48-72 hours after first dose): (66.7) %
- Early Clinical Success, % ([1]; baseline pathogen Klebsiella pneumoniae, 48-72 hours after first dose): (80.0) %
- Early Clinical Success, % ([1]; baseline pathogen MRSA, 48-72 hours after first dose): (93.3) %
- Early Clinical Success, % ([1]; baseline pathogen MSSA, 48-72 hours after first dose): (84.2) %
- Early Clinical Success, % ([1]; baseline pathogen Prevotella denticola, 48-72 hours after first dose): (100.0) %
- Early Clinical Success, % ([1]; baseline pathogen Prevotella melaninogenica, 48-72 hours after first dose): (100.0) %
- Early Clinical Success, % ([1]; baseline pathogen Staphylococcus aureus, 48-72 hours after first dose): (88.2) %
- Early Clinical Success, % ([1]; baseline pathogen Staphylococcus lugdunensis, 48-72 hours after first dose): (80.0) %
- Early Clinical Success, % ([1]; baseline pathogen Streptococcus agalactiae, 48-72 hours after first dose): (50.0) %
- Early Clinical Success, % ([1]; baseline pathogen Streptococcus anginosus group, 48-72 hours after first dose): (94.7) %
- Early Clinical Success, % ([1]; baseline pathogen Streptococcus anginosus, 48-72 hours after first dose): (100.0) %
- Early Clinical Success, % ([1]; baseline pathogen Streptococcus constellatus, 48-72 hours after first dose): (88.9) %
- Early Clinical Success, % ([1]; baseline pathogen Streptococcus intermedius, 48-72 hours after first dose): (91.3) %
- Early Clinical Success, % ([1]; baseline pathogen Streptococcus mitis, 48-72 hours after first dose): (100.0) %
- Early Clinical Success, % ([1]; baseline pathogen Streptococcus pyogenes, 48-72 hours after first dose): (82.8) %
- Early Clinical Success, % ([1]; baseline pathogen Streptococcus viridans group, 48-72 hours after first dose): (100.0) %
- Difference (95% CI) in Early Clinical Success rate ([1]; Cellulitis/erysipelas, actual type, mITT): 1.7 (−10.8, 14.3)
- Difference (95% CI) in Early Clinical Success rate ([1]; Cellulitis/erysipelas, as randomized, mITT): 1.9 (−10.8, 14.5)
- Difference (95% CI) in Early Clinical Success rate ([1]; Major Abscess, actual type, mITT): 5.0 (−5.4, 16.2)
- Difference (95% CI) in Early Clinical Success rate ([1]; Major Abscess, as randomized, mITT): 5.0 (−5.4, 16.2)
- Difference (95% CI) in Early Clinical Success rate ([1]; Wound Infection, actual type, mITT): 6.3 (−0.3, 13.1)
- Difference (95% CI) in Early Clinical Success rate ([1]; Wound Infection, as randomized, mITT): 6.1 (−0.6, 12.8)
- Any TEAE, % of subjects ([2]; 300 mg (n = 26)): (19.2) %
- Any TEAE, n of subjects ([2]; 300 mg (n = 26)): 5 n
- Most frequent TEAEs: Dizziness, % ([2]; 300 mg (n = 26)): (7.7) %
- Most frequent TEAEs: Nausea, % ([2]; 300 mg (n = 26)): (7.7) %
- Most frequent TEAEs: Vomiting, % ([2]; 300 mg (n = 26)): (7.7) %
- TEAEs leading to early discontinuation of study drug: All, % ([2]; 300 mg (n = 26)): (3.8) %
- TEAEs leading to early discontinuation of study drug: Nausea, % ([2]; 300 mg (n = 26)): (3.8) %
- TEAEs leading to early discontinuation of study drug: Vomiting, % ([2]; 300 mg (n = 26)): (3.8) %
- Treatment-related TEAE, % of subjects ([2]; 300 mg (n = 26)): (15.4) %
- Treatment-related TEAE, n of subjects ([2]; 300 mg (n = 26)): 4 n
- Treatment-related TEAE, % of subjects ([2]; 300 mg (n = 26), listed as omadacycline): 15.4%
- median change in alanine aminotransferase (ALT) concentration between baseline and Day 5 ([2]; 300 mg omadacycline): −2.0 IU/L
- Any TEAE, % of subjects ([2]; 450 mg (n = 24)): (12.5) %
- Any TEAE, n of subjects ([2]; 450 mg (n = 24)): 3 n
- Most frequent TEAEs: ALT increased, % ([2]; 450 mg (n = 24)): (4.2) %
- Most frequent TEAEs: Nausea, % ([2]; 450 mg (n = 24)): (4.2) %
- TEAEs leading to early discontinuation of study drug: ALT increased, % ([2]; 450 mg (n = 24)): (4.2) %
- TEAEs leading to early discontinuation of study drug: All, % ([2]; 450 mg (n = 24)): (4.2) %
- Treatment-related TEAE, % of subjects ([2]; 450 mg (n = 24)): (8.3) %
- Treatment-related TEAE, n of subjects ([2]; 450 mg (n = 24)): 2 n
- Treatment-related TEAE, % of subjects ([2]; 450 mg (n = 24), listed as omadacycline): 8.3%
- median change in alanine aminotransferase (ALT) concentration between baseline and Day 5 ([2]; 450 mg omadacycline): 5.0 IU/L
- Any TEAE, % of subjects ([2]; 600 mg (n = 24)): (25.0) %
- Any TEAE, n of subjects ([2]; 600 mg (n = 24)): 6 n
- Most frequent TEAEs: ALT increased, % ([2]; 600 mg (n = 24)): (4.2) %
- Most frequent TEAEs: Diarrhea, % ([2]; 600 mg (n = 24)): (8.3) %
- Most frequent TEAEs: Dizziness, % ([2]; 600 mg (n = 24)): (4.2) %
- Most frequent TEAEs: Nausea, % ([2]; 600 mg (n = 24)): (16.7) %
- Most frequent TEAEs: Vomiting, % ([2]; 600 mg (n = 24)): (4.2) %
- TEAEs leading to early discontinuation of study drug: All, % ([2]; 600 mg (n = 24)): (4.2) %
- TEAEs leading to early discontinuation of study drug: Lipase increased, % ([2]; 600 mg (n = 24)): (4.2) %
- Treatment-related TEAE, % of subjects ([2]; 600 mg (n = 24)): (25.0) %
- Treatment-related TEAE, n of subjects ([2]; 600 mg (n = 24)): 6 n
- Most frequent TEAEs: Nausea, % [2, 10]: 16.7%
- Treatment-related TEAE, % of subjects [2, 10]: 25.0%
- median change in alanine aminotransferase (ALT) concentration between baseline and Day 5 ([2]; 600 mg omadacycline): 19.5 IU/L
- serious TEAEs (SAEs) [2, 11]: no serious TEAEs (SAEs) reported
- severity of TEAEs [2, 11]: either mild or moderate in severity
- Any TEAE, % of subjects ([2]; Omadacycline Overall (n = 26)): (38.5) %
- Any TEAE, n of subjects ([2]; Omadacycline Overall (n = 26)): 10 n
- Most frequent TEAEs: ALT increased, % ([2]; Omadacycline Overall (n = 26)): (7.7) %
- Most frequent TEAEs: Diarrhea, % ([2]; Omadacycline Overall (n = 26)): (7.7) %
- Most frequent TEAEs: Dizziness, % ([2]; Omadacycline Overall (n = 26)): (11.5) %
- Most frequent TEAEs: Nausea, % ([2]; Omadacycline Overall (n = 26)): (23.1) %
- Most frequent TEAEs: Vomiting, % ([2]; Omadacycline Overall (n = 26)): (11.5) %
- TEAEs leading to early discontinuation of study drug: ALT increased, % ([2]; Omadacycline Overall (n = 26)): (3.8) %
- TEAEs leading to early discontinuation of study drug: All, % ([2]; Omadacycline Overall (n = 26)): (11.5) %
- TEAEs leading to early discontinuation of study drug: Lipase increased, % ([2]; Omadacycline Overall (n = 26)): (3.8) %
- TEAEs leading to early discontinuation of study drug: Nausea, % ([2]; Omadacycline Overall (n = 26)): (3.8) %
- TEAEs leading to early discontinuation of study drug: Vomiting, % ([2]; Omadacycline Overall (n = 26)): (3.8) %
- Treatment-related TEAE, % of subjects ([2]; Omadacycline Overall (n = 26)): (34.6) %
- Treatment-related TEAE, n of subjects ([2]; Omadacycline Overall (n = 26)): 9 n
- Any TEAE, % of subjects ([2]; Omadacycline Overall (n = 26), listed as omadacycline): 38.5%
- nausea, % of subjects ([2]; omadacycline 300 and 450 mg dose groups): ≤ 7.7%
- highest individual ALT value ([2]; subject who received 450 mg in Period 1 then 300 mg in Period 2): 150 IU/L

— patent US10111890B2, “9-aminomethyl minocycline compounds and uses thereof” (Paratek Pharmaceuticals, Inc., priority 2016, dated 2018)
